Source: patent US9314509B2, “Pharmaceutical compositions of melanocortin receptor ligands” (Ipsen Pharma S.A.S., priority 2009, dated 2016)
Where a name gives a salt, the structure may show the parent alone. Read-outs that look alike come from different tables or passages of the source.

Assay: Solubility of pamoate salt, HPLC determination of concentration in supernatant
Type: physicochemical
Protocol: The solubility of pamoate salt of Example 1 was determined by mixing the peptide in water or PBS, followed by HPLC determination of the concentration in the supernatant, and the results are shown in Table 4B.

Structure (SMILES): CC(=O)N[C@@H](CCCNC(=N)N)C(=O)N[C@H]1CSSC[C@@H](C(N)=O)NC(=O)[C@H](Cc2c[nH]c3ccccc23)NC(=O)[C@H](CCCNC(=N)N)NC(=O)[C@@H](Cc2ccccc2)NC(=O)[C@H](Cc2c[nH]cn2)NC(=O)[C@@H](C)NC1=O [Pamoate salt of Example 1 with Zn]
- solubility (PBS, pH 7.4, read-out: Solubility in PBS, pH 7.4): 120 µg/mL
- solubility (Water, pH 7.0, read-out: Solubility in Water, pH 7.0): 50 µg/mL
